Assay results taken from ChEMBL document CHEMBL1201862, “PubChem BioAssay data set” (2004).
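Each compound was tested at five concentrations against cells in 96-well plates for 48 hours. The concentration for 50% growth inhibition is given as GI50.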 Active and inactive are the calls of the source. Cut-off read from the data, not from the text of the source: active = GI50 up to about 1.1 µM and inactive = higher.

Experiments:
Test in all cases: DTP human tumour cell line panel, 48 h
SK-OV-3 = system: SK-OV-3
IGROV-1 = system: IGROV-1
NCI-H23 = system: NCI-H23
OVCAR-8 = system: OVCAR-8
M14 = system: M14
NCI-H226 = system: NCI-H226
HCC 2998 = system: HCC 2998
NCI-H460 = system: NCI-H460
SK-MEL-28 = system: SK-MEL-28
HCT-116 = system: HCT-116
RXF 393 = system: RXF 393
EKVX = system: EKVX
K562 = system: K562
LOX IMVI = system: LOX IMVI
SW-620 = system: SW-620
UACC-62 = system: UACC-62
SN12C = system: SN12C
PC-3 = system: PC-3
COLO 205 = system: COLO 205
HT-29 = system: HT-29

SMILES | GI50 (SK-OV-3) | GI50 (IGROV-1) | GI50 (NCI-H23) | GI50 (OVCAR-8) | GI50 (M14) | GI50 (NCI-H226) | GI50 (HCC 2998) | GI50 (NCI-H460) | GI50 (SK-MEL-28) | GI50 (HCT-116) | GI50 (RXF 393) | GI50 (EKVX) | GI50 (K562) | GI50 (LOX IMVI) | GI50 (SW-620) | GI50 (UACC-62) | GI50 (SN12C) | GI50 (PC-3) | GI50 (COLO 205) | GI50 (HT-29)
O=C1Nc2cccc(C(F)(F)F)c2/C1=N/Nc1ccccc1[N+](=O)[O-] | 30.2 µM (inactive) | 0.404 µM (active) | 22.1 µM (inactive) | 26.1 µM (inactive) | > 100 µM (inactive) | 23.1 µM (inactive) | 28.7 µM (inactive) | 17.8 µM (inactive) | 63.5 µM (inactive) | 37.6 µM (inactive) | > 100 µM (inactive) | 11.6 µM (inactive) | 17 µM (inactive) | 17.1 µM (inactive) | 33 µM (inactive) | 51.3 µM (inactive) | 23.4 µM (inactive) | 37.6 µM (inactive) | 29.4 µM (inactive) | 36.4 µM (inactive)
CC(=O)/N=C1/N(/C=C2\C(=O)Oc3ccccc3C2=O)C(=O)/C(=C/c2ccccc2Cl)N1C | > 100 µM (inactive) | > 100 µM (inactive) | > 100 µM (inactive) | > 100 µM (inactive) | > 100 µM (inactive) | > 100 µM (inactive) | > 100 µM (inactive) | > 100 µM (inactive) | > 100 µM (inactive) | > 100 µM (inactive) | > 100 µM (inactive) | 84.9 µM (inactive) | > 100 µM (inactive) | > 100 µM (inactive) | > 100 µM (inactive) | > 100 µM (inactive) | > 100 µM (inactive) | > 100 µM (inactive) | > 100 µM (inactive) | > 100 µM (inactive)
Cc1cccc(/N=N/c2ccc(O)c(CN(C)C)c2)c1 | 41.7 µM (inactive) | 21.8 µM (inactive) | 57.8 µM (inactive) | 21.3 µM (inactive) | 27.4 µM (inactive) | 30.9 µM (inactive) | 16.4 µM (inactive) | 16.7 µM (inactive) | 19.2 µM (inactive) | 20.5 µM (inactive) | 29 µM (inactive) | 20.3 µM (inactive) | 3.33 µM (inactive) | 5.41 µM (inactive) | 18.2 µM (inactive) | 8.95 µM (inactive) | 62.4 µM (inactive) | 36.4 µM (inactive) | 13.2 µM (inactive) | 17.5 µM (inactive)
O=C(CC(=O)Nc1ccccc1Cl)NNC(Sc1ccccc1)c1cc(/N=N/c2ccc(Br)cc2)ccc1O (stereo not given) | 3.03 µM (inactive) | 2.71 µM (inactive) | 1.85 µM (inactive) | 0.598 µM (active) | 0.785 µM (active) | 1.67 µM (inactive) | 2.81 µM (inactive) | 0.625 µM (active) | 2.69 µM (inactive) | 0.387 µM (active) | 1.53 µM (inactive) | 3.29 µM (inactive) | 2.31 µM (inactive) | 0.927 µM (active) | 0.69 µM (active) | 1.17 µM (inactive) | 2.22 µM (inactive) | 0.571 µM (active) | 4.35 µM (inactive) | > 10 µM (inactive)
N=C(N)NS(=O)(=O)c1ccc(NC(=O)c2ccc3nc4ccccc4c(Nc4ccc(S(=O)(=O)N=C(N)N)cc4)c3c2)cc1 | > 100 µM (inactive) | > 100 µM (inactive) | > 100 µM (inactive) | > 100 µM (inactive) | > 100 µM (inactive) | > 100 µM (inactive) | > 100 µM (inactive) | > 100 µM (inactive) | > 100 µM (inactive) | > 100 µM (inactive) | > 100 µM (inactive) | > 100 µM (inactive) | > 100 µM (inactive) | 61.8 µM (inactive) | > 100 µM (inactive) | 30.1 µM (inactive) | > 100 µM (inactive) | > 100 µM (inactive) | > 100 µM (inactive) | > 100 µM (inactive)
CCOC(=O)C1CC(C(=O)c2ccccc2)N2c3ccccc3-c3ccccc3C12 (stereo not given) | > 100 µM (inactive) | 37.2 µM (inactive) | > 100 µM (inactive) | 33.8 µM (inactive) | 26.4 µM (inactive) | > 100 µM (inactive) | > 100 µM (inactive) | > 100 µM (inactive) | > 100 µM (inactive) | 30.8 µM (inactive) | 29.9 µM (inactive) | > 100 µM (inactive) | 31.6 µM (inactive) | 65 µM (inactive) | > 100 µM (inactive) | 46.7 µM (inactive) | > 100 µM (inactive) | 40.6 µM (inactive) | 30.2 µM (inactive) | 78.2 µM (inactive)
CC1=CC(O)C(C(O)(C(F)(F)F)C(F)(F)F)C(C)(C)C1 (stereo not given) | > 10 µM (inactive) | 0.188 µM (active) | > 10 µM (inactive) | > 10 µM (inactive) | < 0.001 µM (active) | > 10 µM (inactive) | > 10 µM (inactive) | > 10 µM (inactive) | > 10 µM (inactive) | > 10 µM (inactive) | > 10 µM (inactive) | > 10 µM (inactive) | > 10 µM (inactive) | > 10 µM (inactive) | > 10 µM (inactive) | > 10 µM (inactive) | > 10 µM (inactive) | > 10 µM (inactive) | > 10 µM (inactive) | > 10 µM (inactive)
CC(C)(C)c1cc(C(C)(C)C)c2c(c1O)OC(=O)CS2 | 13.4 µM (inactive) | 7.1 µM (inactive) | 4.15 µM (inactive) | 5.98 µM (inactive) | 7.1 µM (inactive) | 8.34 µM (inactive) | 3.03 µM (inactive) | 2.75 µM (inactive) | 13.4 µM (inactive) | 3.6 µM (inactive) | 3.61 µM (inactive) | 4.31 µM (inactive) | 3.16 µM (inactive) | 8.47 µM (inactive) | 6.52 µM (inactive) | 2.2 µM (inactive) | 5.79 µM (inactive) | 7.24 µM (inactive) | 2.99 µM (inactive) | 4.34 µM (inactive)
Cc1cn([C@H]2C[C@H](N=[N+]=[N-])[C@@H](CO)O2)c(=O)[nH]c1=O [ZIDOVUDINE] | > 100 µM (inactive) | > 100 µM (inactive) | > 100 µM (inactive) | 180 µM (inactive) | > 100 µM (inactive) | > 100 µM (inactive) | > 100 µM (inactive) | 42.7 µM (inactive) | > 100 µM (inactive) | 88.5 µM (inactive) | 89.5 µM (inactive) | > 100 µM (inactive) | 177 µM (inactive) | > 83 µM (inactive) | > 100 µM (inactive) | 239 µM (inactive) | > 100 µM (inactive) | 885 µM (inactive) | 98.4 µM (inactive) | 238 µM (inactive)
CN(C)CCCc1cccnc1 | > 100 µM (inactive) | > 100 µM (inactive) | > 100 µM (inactive) | > 100 µM (inactive) | > 100 µM (inactive) | > 100 µM (inactive) | > 100 µM (inactive) | > 100 µM (inactive) | > 100 µM (inactive) | > 100 µM (inactive) | > 100 µM (inactive) | > 100 µM (inactive) | > 100 µM (inactive) | > 100 µM (inactive) | > 100 µM (inactive) | > 100 µM (inactive) | > 100 µM (inactive) | > 100 µM (inactive) | > 100 µM (inactive) | > 100 µM (inactive)
Cc1cc(NS(=O)(=O)c2ccc(NC(=O)c3cccc4c(NNc5ccc(S(N)(=O)=O)cc5)c5ccccc5nc34)cc2)no1 | 36.3 µM (inactive) | 47.3 µM (inactive) | 64.7 µM (inactive) | 47.9 µM (inactive) | 67.1 µM (inactive) | 34 µM (inactive) | 27.3 µM (inactive) | 34.9 µM (inactive) | 35.2 µM (inactive) | 33.2 µM (inactive) | 41.5 µM (inactive) | 33.4 µM (inactive) | 33.4 µM (inactive) | 30.5 µM (inactive) | 37.2 µM (inactive) | 43.4 µM (inactive) | 49.9 µM (inactive) | 33.7 µM (inactive) | 45.1 µM (inactive) | 30.9 µM (inactive)
COc1cc(Nc2nc3c(N)cc(C(F)(F)F)cc3nc2-c2ccccc2)cc(OC)c1OC | 42.5 µM (inactive) | 55.3 µM (inactive) | 70.3 µM (inactive) | 24.5 µM (inactive) | 66.2 µM (inactive) | 61.1 µM (inactive) | > 100 µM (inactive) | 37.2 µM (inactive) | 57 µM (inactive) | > 74.3 µM (inactive) | 1.98 µM (inactive) | > 100 µM (inactive) | > 100 µM (inactive) | 72.1 µM (inactive) | > 90.4 µM (inactive) | 43.1 µM (inactive) | 43 µM (inactive) | 37.2 µM (inactive) | 99.3 µM (inactive) | > 92.5 µM (inactive)
O=C1Nc2cc(Cl)ccc2C(=O)N2CCC[C@@H]12 | > 100 µM (inactive) | > 100 µM (inactive) | > 100 µM (inactive) | > 100 µM (inactive) | > 100 µM (inactive) | 0.929 µM (active) | > 100 µM (inactive) | > 100 µM (inactive) | > 100 µM (inactive) | > 100 µM (inactive) | > 100 µM (inactive) | > 100 µM (inactive) | > 100 µM (inactive) | > 100 µM (inactive) | > 100 µM (inactive) | > 100 µM (inactive) | > 100 µM (inactive) | > 100 µM (inactive) | 57.1 µM (inactive) | > 100 µM (inactive)
C=CCOC1=C(OC(C)=O)C(=O)OC1C1COC(C)(C)O1 (stereo not given) | > 100 µM (inactive) | 37.9 µM (inactive) | 31.5 µM (inactive) | 28.6 µM (inactive) | 36 µM (inactive) | 61.1 µM (inactive) | 36.4 µM (inactive) | > 62.5 µM (inactive) | 17.3 µM (inactive) | 26.2 µM (inactive) | 26.3 µM (inactive) | 27.5 µM (inactive) | 23.6 µM (inactive) | 18.1 µM (inactive) | 25.6 µM (inactive) | 57 µM (inactive) | > 42.8 µM (inactive) | > 57.3 µM (inactive) | 29.6 µM (inactive) | 30.1 µM (inactive)
